We go through 21 compounds from ChEMBL document CHEMBL1201862, “PubChem BioAssay data set” (2004).

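Interpolation was linear, between the two tested concentrations surrounding the appropriate level; five concentrations were tested over 48 hours in 96-well plates. At the GI50, growth is halved.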 Calls of active or inactive are those of the source. Cut-off read from the data, not from the text of the source: active = GI50 up to about 1.1 µM and inactive = higher.

What all share (test): NCI tumour cell line growth inhibition, 48 h
Assay [1] has as its system 786-0.
The test system of assay [2] is DMS-273.
Assay [3] deals with HOP-18.
Assay [4] concerns DLD-1.
Assay [5] deals with SNB-78.
Assay [6] has as its system KM-20L2.
Assay [7] concerns LXFL 529.
The test system of assay [8] is M19-MEL.
Assay [9] relates to RXF 631.

With `COc1cc2cc(C(=O)N3CC(CCl)c4ccc(NO)cc43)[nH]c2c(OC)c1OC` (stereo not given), in [1], the GI50 was 0.287 µM (active).

Consider `CC1CC(C[N+](=O)[O-])CC2(C1)OCCO2` (stereo not given), for which the GI50 in assay [2], in assay [3], in assay [4], in [5], in assay [6] and in assay [7] was > 100 µM (inactive) throughout. In addition, the GI50 in [1] and in assay [8] was > 100 µM (inactive) in each case.

For `Cc1n[nH]c(CC#N)n1`, the GI50 in assay [1] is > 100 µM (inactive).

For `OC1CCOc2ccccc21` (stereo not given), the GI50 is > 100 µM (inactive) in [2]; 56.2 µM (inactive) in assay [3]; > 100 µM (inactive) in assay [4]; > 100 µM (inactive) in [6]; > 100 µM (inactive) in assay [7]; > 100 µM (inactive) in assay [8].

For `Nc1ccccc1C(=O)N/N=C1\C(=O)Nc2ccccc21`, the GI50 in [1] was 37.6 µM (inactive).

In the case of `O=C1CSC(/C=C/c2ccccc2)N1c1nc2cc3sc(N4C(=O)CSC4/C=C/c4ccccc4)nc3cc2s1` (stereo not given), the GI50 in assay [1] was > 58.9 µM (inactive).

For `COc1ccc(C(=O)NNC(=O)c2nsc3ccccc23)cc1`, the GI50 in [2] is > 100 µM (inactive); in assay [5], > 100 µM (inactive); in assay [6], 35.9 µM (inactive); in [7] it was > 100 µM (inactive); in assay [8], > 100 µM (inactive).

For `Cn1c(=O)c(C#N)c(O)c2cc3ccccc3nc21`, the GI50 in [2], in [3], in assay [4], in assay [5], in assay [7] and in assay [8] was > 100 µM (inactive) throughout.

In the case of `CC/C=C\C/C=C\C/C=C\CCCCCCCC(=O)OC` [METHYL LINOLENATE], the GI50 in assay [2], in [3], in assay [4] and in [8] was > 100 µM (inactive) throughout.

Regarding `CCOC(=O)C1CCn2c(nc3c2c(=O)n(C)c(=O)n3C)S1` (stereo not given), the GI50 in [2], in assay [3], in [4], in assay [5], in assay [6] and in [7] was > 100 µM (inactive) in each case.

With `O=C(NN1C(=O)CSC1c1cccc(F)c1)c1ccncc1` (stereo not given), the GI50 was > 100 µM (inactive) in assay [2]; < 0.01 µM (active) in assay [3]; > 100 µM (inactive) in assay [5]; > 100 µM (inactive) in [6]; > 100 µM (inactive) in assay [9]; > 100 µM (inactive) in [7].

As for `O=C1NC(O)CCN1C1OC(CO)C(O)C1O` (stereo not given), the GI50 was > 250 µM (inactive) in assay [2]; > 250 µM (inactive) in assay [3]; > 250 µM (inactive) in assay [4]; > 250 µM (inactive) in assay [5]; > 68.7 µM (inactive) in assay [6]; > 213 µM (inactive) in assay [8].

Turning to `Cc1ccc(/N=N/C(C(=O)c2ccccc2)C(=O)c2ccccc2)cc1`, the GI50 is 19.2 µM (inactive) in assay [2]; 21.9 µM (inactive) in assay [4]; 25.3 µM (inactive) in [6]; 35.8 µM (inactive) in assay [9]; 14.5 µM (inactive) in assay [7]; 16.7 µM (inactive) in [1]. Also, in assay [8], the GI50 was 16 µM (inactive).

With `Cc1cc(=O)c2c([nH]1)NS(=O)(=O)NC2=O`, the GI50 in [2], in [4], in [5], in assay [9], in [7] and in assay [1] was > 100 µM (inactive) each time. The GI50 in assay [8] was > 100 µM (inactive).

As to `O=C(OCCOC(=O)c1ccc2c(c1)C1(SCCS1)c1ccccc1-2)c1ccc2c(c1)C1(SCCS1)c1ccccc1-2`, the GI50 in [3] is 27.5 µM (inactive); in assay [4], > 100 µM (inactive); in assay [5] it was > 100 µM (inactive); in assay [6], > 100 µM (inactive); in assay [7], > 100 µM (inactive); in assay [8], > 100 µM (inactive).

As to `COC(=O)C(F)C(Br)C(=O)OC` (stereo not given), the GI50 in assay [1] is 2.52 µM (inactive).

For the compound `CC1CC2=C(S(=O)(=O)c3ccccc3)CC(S(=O)(=O)c3ccccc3)(S(=O)(=O)c3ccccc3)CC21` (stereo not given), the GI50 in assay [2], in assay [3], in assay [4] and in assay [6] was > 100 µM (inactive) in each case.

Turning to `Cc1cc(=O)oc2c1cc1ccc3cccc4ccc2c1c34`, the GI50 in assay [3] is > 100 µM (inactive); in [4], > 100 µM (inactive); in assay [5], 83 µM (inactive); in assay [6], > 100 µM (inactive); in assay [7], > 100 µM (inactive); in assay [8], > 100 µM (inactive).

Consider `COc1cc(/C=C2\N=C(c3ccccc3)N(C3Nc4cc5c(cc4S3)NC(N3C(=O)/C(=C/c4cc(OC)c(OC)c(OC)c4)N=C3c3ccccc3)S5)C2=O)cc(OC)c1OC` (stereo not given), for which the GI50 in assay [1] was 61.1 µM (inactive).

As for `CCOc1ccc2c(C)cc(=O)oc2c1`, in assay [1], the GI50 is > 100 µM (inactive).

As for `Cc1ccc(OCC2OC(n3cnc4c(Cl)nc(N)nc43)CC2Oc2ccc(C)cc2)cc1` (stereo not given), the GI50 in [1] is 55.5 µM (inactive).
